Measurements from ChEMBL document CHEMBL4177599, “The antitubercular activity of various nitro(triazole/imidazole)-based compounds” (Bioorg Med Chem, 2017).
≈ marks a conversion by molar mass, not a printed value.

Assays:
[1] = Half life in human liver S9 microsomes at 1 uM in presence of NADPH by LC-MS/MS analysis
[2] = Intrinsic clearance in human liver S9 microsomes at 1 uM in presence of NADPH by LC-MS/MS analysis; format: ADME, S9 microsome; conditions: read-out: CLH
[3] = Intrinsic clearance in human liver S9 microsomes at 1 uM in absence of NADPH by LC-MS/MS analysis; format: ADME, S9 microsome; conditions: read-out: CLH
[4] = system: Mycobacterium tuberculosis; test: Antitubercular activity against Mycobacterium tuberculosis H37Rv ATCC 27294 after 5 days under aerobic condition; format: functional, organism-based; conditions: for IC50 / IC90 / MIC: H37Rv ATCC 27294, 120 h; for Activity: TDE = time-dependent effect
[5] = system: Mycobacterium tuberculosis; test: Antitubercular activity against Mycobacterium tuberculosis H37Rv ATCC 27294 after 10 days under low oxygen condition followed by incubation under aerobic condition for 28 hrs by LORA; format: functional, organism-based
[6] = system: Mycobacterium tuberculosis; test: Bactericidal activity against Mycobacterium tuberculosis H37Rv ATCC 27294 assessed as concentration required for 2 log kill after 21 days under aerobic condition by colony forming assay; format: functional; conditions: for MBC: H37Rv ATCC 27294, 504 h; for Activity: TDE = time-dependent effect
THP-1 = test: Cytotoxicity against human THP1 cells after 3 days by luminescence assay; format: cell-based; conditions: THP-1, 72 h
[7] = system: Mycobacterium tuberculosis; test: Antitubercular activity against luxABCDE expressing Mycobacterium tuberculosis H37Rv infected in human THP1 cells measured after 3 days by luminescence assay; format: functional, organism-based; conditions: THP-1, 72 h
[8] = Protein binding in human plasma at 5 uM after 4 hrs by LC-MS/MS analysis
[9] = Half life in human liver S9 microsomes at 1 uM in absence of NADPH by LC-MS/MS analysis
HepG2 = test: Cytotoxicity against human HepG2 cells at 100 uM after 3 days by CellTiter-Glo luminescent cell viability assay; format: cell-based; conditions: HepG2, 72 h
in vitro [10] = conditions: human, Caco-2
Description: Apparent permeability of the compound across apical side to basolateral side in human Caco2 cells monolayer at 10 uM after 2 hrs by LC-MS/MS analysis

in vitro [11] = conditions: human, Caco-2; remark: listed apart in the source
Description: Apparent permeability of the compound across basolateral side to apical side in human Caco2 cells monolayer at 10 uM after 2 hrs by LC-MS/MS analysis

in vitro [12] = conditions: human, Caco-2; remark: listed apart in the source
Description: Efflux ratio of apparent permeability from basolateral to apical over apical to basolateral side in human Caco2 cells monolayer at 10 uM after 2 hrs by LC-MS/MS analysis

Vero = test: Cytotoxicity against African green monkey Vero cells after 2 days by CellTiter-Glo luminescent cell viability assay; format: ADME, cell-based; conditions: Chlorocebus sabaeus, 48 h
[13] = system: Mycobacterium tuberculosis; test: Antitubercular activity against luxABCDE expressing Mycobacterium tuberculosis H37Rv infected in mouse J774 macrophages assessed as log reduction in bacterial colonies at 20 uM measured after 4 days under aerobic condition by luminescence assay; format: functional
[14] = Solubility of compound in Middlebrook 7H9 broth media at pH 6.4 at 200 uM after 90 mins by UV-VIS spectrophotometric method; format: physicochemical; conditions: buffer, pH 6.4, 1.5 h
in vitro [15] = conditions: human, THP1 cells
Description: Selectivity index, ratio of IC50 for human THP1 cells to IC50 for Mycobacterium tuberculosis H37Rv under aerobic condition

L6 = test: Cytotoxicity against rat L6 cells after 2 days by CellTiter-Glo luminescent cell viability assay; format: ADME, cell-based; conditions: L6, 48 h
[16] = system: Mycobacterium tuberculosis; test: Potency index, ratio of compound MIC to metronidazole MIC for antitubercular activity against Mycobacterium tuberculosis H37Rv ATCC 27294 under low oxygen condition; format: functional

Structure (SMILES)	IC50 [4] [µM]	IC90 [4] [µM]	MIC [4] [µM]	IC50 [5] [µM]	IC90 [5] [µM]	MIC [5] [µM]	MBC [6] [µM]	IC50 (THP-1) [µM]	IC50 [7] [µM]	IC90 [7] [µM]	solubility [14]	further results
COc1ccc2c(c1)[C@]13CCCC[C@@H]1[C@H](C2)N(C)CC3 [DEXTROMETHORPHAN]												half-life at 1 µM [1]: 1.54 to 1.59 h; microsomal CLint at 1 µM [2]: 24.2 µL/min/mg; microsomal CLint at 1 µM [3]: < 12.8 µL/min/mg
O=C(Cn1cnc([N+](=O)[O-])n1)Nc1ccc(N2CCCCC2)cc1	29	46	48 (≈ 15.9 µg/mL)	99	110	120 (≈ 39.6 µg/mL)	20 (≈ 6.61 µg/mL)	> 50	11	25		fraction unbound at 4 h, 5 µM [8]: 0.233; half-life at 1 µM [1]: 2.68 h; half-life at 1 µM [9]: > 3 h; IC50 (HepG2): > 100 µM; Papp A→B at 2 h, 10 µM (in vitro [10]): 38.4 ×10⁻⁶ cm/s; Papp B→A at 2 h, 10 µM (in vitro [11]): 27 ×10⁻⁶ cm/s; efflux ratio at 2 h, 10 µM (in vitro [12]): 0.7
O=C(Cn1ccnc1[N+](=O)[O-])Nc1ccc(Oc2ccc(F)cc2)cc1	44	89	80 (≈ 28.5 µg/mL)	17	31	61 (≈ 21.7 µg/mL)	100 (≈ 35.6 µg/mL)					IC50 (Vero): 56 µM; log(activity) [13]: 2.2
O=C(Cn1cnc([N+](=O)[O-])n1)Nc1nc(-c2ccc(Cl)cc2)cs1	34.2	34.9	34.9 (≈ 12.7 µg/mL)								Insoluble	
O=C(Cn1cnc([N+](=O)[O-])n1)Nc1cccc(-c2ccccc2)c1	27	39	31 (≈ 10 µg/mL)	30	46	73 (≈ 23.6 µg/mL)	20 (≈ 6.47 µg/mL)	> 50	11	12		fraction unbound at 4 h, 5 µM [8]: 0.028; half-life at 1 µM [9]: 1.32 h; IC50 (HepG2): 46 µM
Cc1ccoc1C(=O)NCCCn1cnc([N+](=O)[O-])n1	41	54	54.5 (≈ 15.2 µg/mL)								Soluble	
O=C(CCCN1CCC(O)(c2ccc(Cl)cc2)CC1)c1ccc(F)cc1 [HALOPERIDOL]											Insoluble	
O=C(Cn1cnc([N+](=O)[O-])n1)N1CCN(Cc2ccc(Cl)c(Cl)c2)CC1	5.9	7.7	6.6 (≈ 2.63 µg/mL)	17	47	140 (≈ 55.9 µg/mL)	5.6 (≈ 2.24 µg/mL)	> 50	4	6.7		fraction unbound at 4 h, 5 µM [8]: 0.076; half-life at 1 µM [1]: 1.2 h; half-life at 1 µM [9]: 2.9 h; IC50 (HepG2): 77 µM; Papp A→B at 2 h, 10 µM (in vitro [10]): 16.3 ×10⁻⁶ cm/s; Papp B→A at 2 h, 10 µM (in vitro [11]): 14.8 ×10⁻⁶ cm/s; selectivity ratio (in vitro [15]): > 10
CN[C@@H]1C[C@H]2O[C@@](C)([C@@H]1OC)n1c3ccccc3c3c4c(c5c6ccccc6n2c5c31)C(=O)NC4 [STAUROSPORINE]												IC50 (HepG2): 0.018 µM
Cc1ncc([N+](=O)[O-])n1CCO [METRONIDAZOLE]	> 200	> 200	> 200	14 to 36	33 to 82	88 to 200 (≈ 15.1 to 34.2 µg/mL)						
Cc1nc([N+](=O)[O-])cn1CCCNC(=O)c1cc2ccccc2s1	> 200	> 200	> 200								Soluble	
COCCc1ccc(OCC(O)CNC(C)C)cc1.COCCc1ccc(OCC(O)CNC(C)C)cc1.O=C(O)/C=C/C(=O)O (racemic) [METOPROLOL FUMARATE]											Soluble	
O=C(CCn1cnc([N+](=O)[O-])n1)Nc1ccc(Oc2ccccc2)cc1	28 to 32	39 to 45	48 (≈ 17 µg/mL)	32	49	81 (≈ 28.6 µg/mL)	20 (≈ 7.07 µg/mL)	33	5	17		Activity [4]: Tde; Activity [6]: Tde; IC50 (L6): 32 µM
CO[C@H]1/C=C/O[C@@]2(C)Oc3c(C)c(O)c4c(O)c(c(/C=N/N5CCN(C)CC5)c(O)c4c3C2=O)NC(=O)/C(C)=C\C=C\[C@H](C)[C@H](O)[C@@H](C)[C@@H](O)[C@@H](C)[C@H](OC(C)=O)[C@@H]1C [RIFAMPIN]	0.0046 to 0.0061	0.0049 to 0.014	0.015 to 0.033 (≈ 0.0123 to 0.0272 µg/mL)	0.00072 to 0.015	0.0037 to 0.049	0.022 to 0.18 (≈ 0.0181 to 0.148 µg/mL)						
O=C(CCn1cnc([N+](=O)[O-])n1)Nc1ccc(Oc2ccc(Cl)cc2)cc1	15 to 22	22 to 24	24 to 26 (≈ 9.31 to 10.1 µg/mL)	25	27	30 (≈ 11.6 µg/mL)	20 (≈ 7.76 µg/mL)	14	3.4	10		Activity [4]: Tde; Activity [6]: Tde; Ratio [16]: 6 - 9; IC50 (L6): 17 µM
